Experimental data: the Kinase Knowledgebase extract (Sharma et al. 2016)

The compounds below were run against PIK3CG (human) (UniProt P48736) (assay: Assessment of PIK3CG Kinase Activity).
Chain of PIK3CG (human) (P48736 whole entry, looked up): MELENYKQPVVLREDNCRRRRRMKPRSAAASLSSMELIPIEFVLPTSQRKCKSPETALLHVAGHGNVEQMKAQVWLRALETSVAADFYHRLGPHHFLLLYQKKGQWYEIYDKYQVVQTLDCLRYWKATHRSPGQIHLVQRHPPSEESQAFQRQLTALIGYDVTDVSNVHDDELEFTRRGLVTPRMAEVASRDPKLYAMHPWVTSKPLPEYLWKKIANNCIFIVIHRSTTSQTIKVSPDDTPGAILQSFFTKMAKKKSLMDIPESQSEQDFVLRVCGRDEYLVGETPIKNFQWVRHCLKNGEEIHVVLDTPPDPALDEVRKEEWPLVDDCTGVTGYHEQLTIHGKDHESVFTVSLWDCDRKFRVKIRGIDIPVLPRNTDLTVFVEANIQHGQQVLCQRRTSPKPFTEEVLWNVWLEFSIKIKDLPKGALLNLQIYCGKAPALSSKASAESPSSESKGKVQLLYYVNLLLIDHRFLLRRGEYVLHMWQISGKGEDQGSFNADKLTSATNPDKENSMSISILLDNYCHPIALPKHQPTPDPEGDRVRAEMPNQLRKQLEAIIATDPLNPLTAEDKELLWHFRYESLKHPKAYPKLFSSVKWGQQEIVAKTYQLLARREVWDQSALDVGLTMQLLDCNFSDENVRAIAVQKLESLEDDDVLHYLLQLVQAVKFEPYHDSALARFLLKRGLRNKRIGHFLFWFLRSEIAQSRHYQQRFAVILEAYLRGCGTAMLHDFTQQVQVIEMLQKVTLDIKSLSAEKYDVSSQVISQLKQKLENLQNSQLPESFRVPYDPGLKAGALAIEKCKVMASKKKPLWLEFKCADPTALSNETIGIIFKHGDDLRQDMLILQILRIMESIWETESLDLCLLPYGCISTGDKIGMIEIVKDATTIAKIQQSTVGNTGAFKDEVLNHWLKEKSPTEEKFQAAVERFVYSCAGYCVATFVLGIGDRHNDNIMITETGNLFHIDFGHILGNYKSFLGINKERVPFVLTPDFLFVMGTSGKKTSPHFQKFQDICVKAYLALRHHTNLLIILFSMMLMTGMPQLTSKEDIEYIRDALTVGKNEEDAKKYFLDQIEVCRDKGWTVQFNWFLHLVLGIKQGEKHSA

SMILES | IC50
CC(=O)Nc1nc2c(s1)-c1nc(-c3cccc(C#CC4CCN(CC5CCCC5)CC4)c3)ncc1CC2 | < 600 nM
CC(=O)Nc1nc2c(s1)-c1nc(-c3cc(C#C[C@H]4CCCN4)ccc3Cl)ncc1CC2 | < 600 nM
CCN(CC)S(=O)(=O)NCC#Cc1ccc(Cl)c(-c2ncc3c(n2)-c2sc(NC(C)=O)nc2CC3)c1 | < 600 nM
CC(=O)Nc1nc2c(s1)-c1nc(-c3cc(C#CC4(O)CCN(C5CCCC5)CC4)ccc3Cl)ncc1CC2 | < 600 nM
COC1(C#Cc2ccc(Cl)c(-c3ncc4c(n3)-c3sc(NC(C)=O)nc3CC4)c2)CCN(C)CC1 | < 600 nM
CC(=O)Nc1nc2c(s1)-c1nc(-c3cc(C#CC4(N)CCCCC4)ccc3Cl)ncc1CC2 | < 600 nM
CC(=O)Nc1nc2c(s1)-c1nc(-c3cc(C#CCNS(=O)(=O)C(C)C)ccc3Cl)ncc1CC2 | < 600 nM
CC(=O)Nc1nc2c(s1)-c1nc(-c3cc(Cl)cc(C#CCN(C)C)c3)ncc1CC2 | < 600 nM
CC(=O)Nc1nc2c(s1)-c1nc(-c3cc(C#CC4(O)CCC(C)(C)CC4)ccc3Cl)ncc1CC2 | < 600 nM
CNC(=O)N(C)CCC#Cc1ccc(Cl)c(-c2ncc3c(n2)-c2sc(NC(C)=O)nc2CC3)c1 | < 600 nM
CC(=O)Nc1nc2c(s1)-c1nc(-c3cc(C#Cc4ccccn4)ccc3Cl)ncc1CC2 | < 600 nM
CCNC(=O)N1CCC(C#Cc2ccc(Cl)c(-c3ncc4c(n3)-c3sc(NC(C)=O)nc3CC4)c2)CC1 | < 600 nM
CC(=O)Nc1nc2c(s1)-c1nc(-c3cc(Cl)cc(C#CC4(N)CCCCC4)c3)ncc1CC2 | < 600 nM
CC(=O)Nc1nc2c(s1)-c1nc(-c3cc(C#C[C@@H]4CCCN4)ccc3Cl)ncc1CC2 | < 600 nM
CC(=O)Nc1nc2c(s1)-c1nc(-c3cc(C#CC4CCN(S(C)(=O)=O)CC4)ccc3Cl)ncc1CC2 | < 600 nM
CC(=O)Nc1nc2c(s1)-c1nc(-c3cc(C#CC4CCCCC4)ccc3Cl)ncc1CC2 | < 600 nM
CC(=O)Nc1nc2c(s1)-c1nc(-c3cc(C#CCNC(=O)C(C)C)ccc3Cl)ncc1CC2 | < 600 nM
CC(=O)Nc1nc2c(s1)-c1nc(-c3cc(C#CCCCN4CCOCC4)ccc3Cl)ncc1CC2 | < 600 nM
CC(=O)Nc1nc2c(s1)-c1nc(-c3cc(C#CCCCNC4CCN(C)CC4)ccc3Cl)ncc1CC2 | < 600 nM
COC1(C#Cc2ccc(F)c(-c3ncc4c(n3)-c3sc(NC(C)=O)nc3CC4)c2)CCCCC1 | < 600 nM
CC(=O)Nc1nc2c(s1)-c1nc(-c3cc(C#CCNC(=O)CCC(C)C)ccc3Cl)ncc1CC2 | < 600 nM
CC(=O)Nc1nc2c(s1)-c1nc(-c3cc(C#CCN4CCN(C(C)=O)CC4)ccc3Cl)ncc1CC2 | < 600 nM

SMILES | IC50
CC(=O)Nc1nc2c(s1)-c1nc(-c3cc(C#CC4(N(C)C)CCCC4)ccc3Cl)ncc1CC2 | < 600 nM
CNCC#Cc1ccc(Cl)c(-c2ncc3c(n2)-c2sc(NC(C)=O)nc2CC3)c1 | < 600 nM
CC(=O)Nc1nc2c(s1)-c1nc(-c3cc(C#CC4CCN(C(=O)N5CCCC5)CC4)ccc3Cl)ncc1CC2 | < 600 nM
CC(=O)Nc1nc2c(s1)-c1nc(-c3cc(C#CCCN4CCOCC4)ccc3Cl)ncc1CC2 | < 600 nM
CC(=O)Nc1nc2c(s1)-c1nc(-c3cc(C#CC4(NC(C)=O)CCCCC4)ccc3Cl)ncc1CC2 | < 600 nM
CC(=O)Nc1nc2c(s1)-c1nc(-c3cc(C#CCNC(=O)CCC4CCCC4)ccc3Cl)ncc1CC2 | < 600 nM
CC(=O)Nc1nc2c(s1)-c1nc(-c3cc(C#CCNCC4CCCC4)ccc3Cl)ncc1CC2 | < 600 nM
COC1(C#Cc2ccc(F)c(-c3ncc4c(n3)-c3sc(NC(C)=O)nc3CC4)c2)CCN(C)CC1 | < 600 nM
CC(=O)Nc1nc2c(s1)-c1nc(-c3cccc(C#CC4(O)CCN(C)CC4)c3)ncc1CC2 | < 600 nM
CC(=O)Nc1nc2c(s1)-c1nc(-c3cc(C#CC4CCN(C5CCCC5)CC4)ccc3F)ncc1CC2 | < 600 nM
CC(=O)Nc1nc2c(s1)-c1nc(-c3cc(C#CC4CCN(C5CCCC5)CC4)ccc3Cl)ncc1CC2 | < 600 nM
CC(=O)Nc1nc2c(s1)-c1nc(-c3cc(C#CCNS(=O)(=O)c4ccoc4)ccc3Cl)ncc1CC2 | < 600 nM
CC(=O)Nc1nc2c(s1)-c1nc(-c3cc(C#CC4(N5CCCC5)CCCCC4)ccc3Cl)ncc1CC2 | < 600 nM
CC(=O)NCC#Cc1ccc(Cl)c(-c2ncc3c(n2)-c2sc(NC(C)=O)nc2CC3)c1 | < 600 nM
CCNC(=O)NCC#Cc1ccc(Cl)c(-c2ncc3c(n2)-c2sc(NC(C)=O)nc2CC3)c1 | < 600 nM
CC(=O)Nc1nc2c(s1)-c1nc(-c3cc(C#CCN4CCN(C5CCCC5)CC4)ccc3Cl)ncc1CC2 | < 600 nM
CC(=O)Nc1nc2c(s1)-c1nc(-c3cc(C#CC4CCN(C(=O)NC(C)(C)C)CC4)ccc3Cl)ncc1CC2 | < 600 nM
CC(=O)Nc1nc2c(s1)-c1nc(-c3cc(C#CC4CCN(C(=O)CC(C)C)CC4)ccc3Cl)ncc1CC2 | < 600 nM
CC(=O)Nc1nc2c(s1)-c1nc(-c3cc(C#CCCCNCC(C)C)ccc3Cl)ncc1CC2 | < 600 nM
CC(=O)Nc1nc2c(s1)-c1nc(-c3cc(C#CCNC(=O)N(C)C)ccc3Cl)ncc1CC2 | < 600 nM
CC(=O)Nc1nc2c(s1)-c1nc(-c3cc(C#CCN(C)S(=O)(=O)N4CCCC4)ccc3Cl)ncc1CC2 | < 600 nM
CCC(N)(C#Cc1ccc(Cl)c(-c2ncc3c(n2)-c2sc(NC(C)=O)nc2CC3)c1)CC | < 600 nM
